Test results: PubChem BioAssay AID1259407 (Chemical Carcinogenesis Research Information System (CCRIS), 2018)
“Also recorded” adds a separate entry of the source. The source made the active and inactive calls. The rule behind the calls is not given here.

Tested on: CCRIS mutagenicity, Ames/micronucleus/aberration tests
Assay: CCRIS mutagenicity studies
[1] = Test System: AMES SALMONELLA TYPHIMURIUM, Strain/Indicator: TA98, Metabolic Activation: HAMSTER, LIVER, S-9, AROCLOR 1254 (10%), Method: PREINCUBATION
[2] = Test System: AMES SALMONELLA TYPHIMURIUM, Strain/Indicator: TA98, Metabolic Activation: RAT, LIVER, S-9, AROCLOR 1254 (10%), Method: PREINCUBATION
[3] = Test System: AMES SALMONELLA TYPHIMURIUM, Strain/Indicator: TA100, Metabolic Activation: HAMSTER, LIVER, S-9, AROCLOR 1254 (10%), Method: PREINCUBATION
[4] = Test System: AMES SALMONELLA TYPHIMURIUM, Strain/Indicator: TA100, Metabolic Activation: RAT, LIVER, S-9, AROCLOR 1254 (10%), Method: PREINCUBATION
[5] = Test System: AMES SALMONELLA TYPHIMURIUM, Strain/Indicator: TA1535, Metabolic Activation: HAMSTER, LIVER, S-9, AROCLOR 1254 (10%), Method: PREINCUBATION
[6] = Test System: AMES SALMONELLA TYPHIMURIUM, Strain/Indicator: TA1535, Metabolic Activation: NONE, Method: PREINCUBATION
[7] = Test System: AMES SALMONELLA TYPHIMURIUM, Strain/Indicator: TA1535, Metabolic Activation: RAT, LIVER, S-9, AROCLOR 1254 (10%), Method: PREINCUBATION
[8] = Test System: AMES SALMONELLA TYPHIMURIUM, Strain/Indicator: TA1537, Metabolic Activation: HAMSTER, LIVER, S-9, AROCLOR 1254 (10%), Method: PREINCUBATION
[9] = Test System: AMES SALMONELLA TYPHIMURIUM, Strain/Indicator: TA1537, Metabolic Activation: NONE, Method: PREINCUBATION
[10] = Test System: AMES SALMONELLA TYPHIMURIUM, Strain/Indicator: TA1537, Metabolic Activation: RAT, LIVER, S-9, AROCLOR 1254 (10%), Method: PREINCUBATION

Nc1ccc(Oc2ccc(N)cc2)cc1
mutagenic call (End Point: IN VITRO CHROMOSOMAL ABERRATIONS, Test System: CHL CELLS, Metabolic Activation: NONE): active; positive (structural changes); precipitation occurred at 1.3 and 5.0 mg/ml; also recorded: active; positive (structural changes); precipitation occurred at 1.7 and 5.0 mg/ml | mutagenic call (End Point: IN VITRO CHROMOSOMAL ABERRATIONS, Test System: CHL CELLS, Metabolic Activation: RAT, LIVER, S-9, SODIUM PHENOBARBITAL AND 5,6-BENZOFLAVONE): active; positive (structural changes); precipitation occurred at 1.7 mg/ml | mutagenic call (End Point: IN VITRO CHROMOSOMAL ABERRATIONS, Test System: CHO CELLS, Metabolic Activation: RAT, LIVER, S-9, AROCLOR 1254): active; positive; precipitation occurred at 1600 and 5000 ug/ml; also recorded: active; positive; precipitation occurred at 2000, 3000, 4000 and 5000 ug/ml | mutagenic call (Test System: AMES SALMONELLA TYPHIMURIUM, Strain/Indicator: TA97, Metabolic Activation: HAMSTER, LIVER, S-9, AROCLOR 1254 (10%), Method: PREINCUBATION): active; positive | mutagenic call (Test System: AMES SALMONELLA TYPHIMURIUM, Strain/Indicator: TA97, Metabolic Activation: NONE, Method: PREINCUBATION): inactive; negative | mutagenic call (Test System: AMES SALMONELLA TYPHIMURIUM, Strain/Indicator: TA97, Metabolic Activation: RAT, LIVER, S-9, AROCLOR 1254 (10%), Method: PREINCUBATION): active; positive | mutagenic call [1]: active; positive | mutagenic call (Test System: AMES SALMONELLA TYPHIMURIUM, Strain/Indicator: TA98, Metabolic Activation: NONE, Method: FLUCTUATION (MICROTITER)): inactive; negative | mutagenic call (Test System: AMES SALMONELLA TYPHIMURIUM, Strain/Indicator: TA98, Metabolic Activation: NONE, Method: STANDARD PLATE): inactive; negative | mutagenic call (Test System: AMES SALMONELLA TYPHIMURIUM, Strain/Indicator: TA98, Metabolic Activation: RAT LIVER S-9, PHENOBARBITAL AND BETA-NAPHTHOFLAVONE, Method: PREINCUBATION): active; positive | mutagenic call [2]: active; positive | mutagenic call (Test System: AMES SALMONELLA TYPHIMURIUM, Strain/Indicator: TA98, Metabolic Activation: RAT, LIVER, S-9, PCB, Method: PREINCUBATION): active; positive | mutagenic call (Test System: AMES SALMONELLA TYPHIMURIUM, Strain/Indicator: TA98, Metabolic Activation: RAT, LIVER, S-9, PCB, Method: STANDARD PLATE): active; positive | mutagenic call [3]: active; positive | mutagenic call (Test System: AMES SALMONELLA TYPHIMURIUM, Strain/Indicator: TA100, Metabolic Activation: NONE, Method: STANDARD PLATE): inactive; negative | mutagenic call (Test System: AMES SALMONELLA TYPHIMURIUM, Strain/Indicator: TA100, Metabolic Activation: RAT LIVER S-9, PHENOBARBITAL AND BETA-NAPHTHOFLAVONE, Method: PREINCUBATION): active; positive | mutagenic call [4]: active; positive | mutagenic call (Test System: AMES SALMONELLA TYPHIMURIUM, Strain/Indicator: TA100, Metabolic Activation: RAT, LIVER, S-9, PCB, Method: PREINCUBATION): active; positive | mutagenic call (Test System: AMES SALMONELLA TYPHIMURIUM, Strain/Indicator: TA100, Metabolic Activation: RAT, LIVER, S-9, PCB, Method: STANDARD PLATE): active; positive | mutagenic call [5]: active; positive | mutagenic call [6]: inactive; negative | mutagenic call (Test System: AMES SALMONELLA TYPHIMURIUM, Strain/Indicator: TA1535, Metabolic Activation: RAT LIVER S-9, PHENOBARBITAL AND BETA-NAPHTHOFLAVONE, Method: PREINCUBATION): inactive; negative | mutagenic call [7]: inactive; negative | mutagenic call [8]: active; positive | mutagenic call (Test System: AMES SALMONELLA TYPHIMURIUM, Strain/Indicator: TA1537, Metabolic Activation: NONE, Method: FLUCTUATION (MICROTITER)): inactive; negative | mutagenic call [9]: inactive; negative | mutagenic call (Test System: AMES SALMONELLA TYPHIMURIUM, Strain/Indicator: TA1537, Metabolic Activation: RAT LIVER S-9, PHENOBARBITAL AND BETA-NAPHTHOFLAVONE, Method: PREINCUBATION): inactive; negative | mutagenic call [10]: inactive; negative | mutagenic call (Test System: AMES SALMONELLA TYPHIMURIUM, Strain/Indicator: TA7001, Metabolic Activation: NONE, Method: FLUCTUATION (MICROTITER)): inactive; negative | mutagenic call (Test System: AMES SALMONELLA TYPHIMURIUM, Strain/Indicator: TA7002, Metabolic Activation: NONE, Method: FLUCTUATION (MICROTITER)): inactive; negative | mutagenic call (Test System: AMES SALMONELLA TYPHIMURIUM, Strain/Indicator: TA7003, Metabolic Activation: NONE, Method: FLUCTUATION (MICROTITER)): inactive; negative | mutagenic call (Test System: AMES SALMONELLA TYPHIMURIUM, Strain/Indicator: TA7004, Metabolic Activation: NONE, Method: FLUCTUATION (MICROTITER)): inactive; negative | mutagenic call (Test System: AMES SALMONELLA TYPHIMURIUM, Strain/Indicator: TA7005, Metabolic Activation: NONE, Method: FLUCTUATION (MICROTITER)): active; positive | mutagenic call (Test System: AMES SALMONELLA TYPHIMURIUM, Strain/Indicator: TA7006, Metabolic Activation: NONE, Method: FLUCTUATION (MICROTITER)): inactive; negative | mutagenic call (Test System: E.COLI, Strain/Indicator: WP2UVRA, Metabolic Activation: NONE, Method: PREINCUBATION): inactive; negative | mutagenic call (Test System: E.COLI, Strain/Indicator: WP2UVRA, Metabolic Activation: RAT LIVER S-9, PHENOBARBITAL AND BETA-NAPHTHOFLAVONE, Method: PREINCUBATION): inactive; negative

CC(C)CCCCCCCOC(=O)c1ccccc1C(=O)OCCCCCCCC(C)C
mutagenic call [1]: inactive; negative | mutagenic call (Test System: AMES SALMONELLA TYPHIMURIUM, Strain/Indicator: TA98, Metabolic Activation: NONE, Method: PREINCUBATION): inactive; negative | mutagenic call [2]: inactive; negative | mutagenic call [3]: inactive; negative | mutagenic call (Test System: AMES SALMONELLA TYPHIMURIUM, Strain/Indicator: TA100, Metabolic Activation: NONE, Method: PREINCUBATION): inactive; negative | mutagenic call [4]: inactive; negative | mutagenic call [5]: inactive; negative | mutagenic call [6]: inactive; negative | mutagenic call [7]: inactive; negative | mutagenic call [8]: inactive; negative | mutagenic call [9]: inactive; negative | mutagenic call [10]: inactive; negative | mutagenic call (Test System: MOUSE LYMPHOMA, Strain/Indicator: L5178Y (TK+/TK-), Metabolic Activation: NONE, Method: SUSPENSION/PLATE): inactive; negative | mutagenic call (Test System: MOUSE LYMPHOMA, Strain/Indicator: L5178Y (TK+/TK-), Metabolic Activation: RAT LIVER S-9, Method: SUSPENSION/PLATE): inactive; negative
